Results taken from patent US20250011318A1 (ARCUS BIOSCIENCES, INC., priority 2023, published 2025).

What was measured:
[1] = system: Jurkat cells; experiment: IL-2 secretion assay in CD3/CD28-activated Jurkat cells (AlphaLISA); type: cell-based, human; conditions: CD3/CD28 T Cell Activator, 24 h, IL-2 AlphaLISA
In short: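 Jurkat cells (50,000/well) preincubated 1 h at 37° C with compound (16-point 1:2 series, final 10 μM to 300 pM) in Opti-MEM, then stimulated with CD3/CD28 activator for 24 h. Supernatant IL-2 read by AlphaLISA; EC50 from 4-parameter logistic fit.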

[2] = biological target: T1, Cbl-b (Homo sapiens, UniProt Q13191); experiment: Cbl-b probe displacement HTRF binding assay; conditions: 0.4 nM biotinylated Cbl-b, 150 nM BODIPY probe
T1 construct: biotin (biotinylated)
In short: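 Biotinylated Cbl-b (0.4 nM) preincubated 60 min at RT with compound (20-point 1:2 series, 10 μM top), then 150 nM BODIPY probe for 15 min, then streptavidin-terbium detection. Buffer: 20 mM Hepes, 150 mM NaCl, 0.01% Triton X-100, 0.5 mM TCEP, 0.01% BSA. Loss of HTRF signal gave IC50 via four-parameter fit.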

T1 sequence (Q13191 whole entry, species assumed): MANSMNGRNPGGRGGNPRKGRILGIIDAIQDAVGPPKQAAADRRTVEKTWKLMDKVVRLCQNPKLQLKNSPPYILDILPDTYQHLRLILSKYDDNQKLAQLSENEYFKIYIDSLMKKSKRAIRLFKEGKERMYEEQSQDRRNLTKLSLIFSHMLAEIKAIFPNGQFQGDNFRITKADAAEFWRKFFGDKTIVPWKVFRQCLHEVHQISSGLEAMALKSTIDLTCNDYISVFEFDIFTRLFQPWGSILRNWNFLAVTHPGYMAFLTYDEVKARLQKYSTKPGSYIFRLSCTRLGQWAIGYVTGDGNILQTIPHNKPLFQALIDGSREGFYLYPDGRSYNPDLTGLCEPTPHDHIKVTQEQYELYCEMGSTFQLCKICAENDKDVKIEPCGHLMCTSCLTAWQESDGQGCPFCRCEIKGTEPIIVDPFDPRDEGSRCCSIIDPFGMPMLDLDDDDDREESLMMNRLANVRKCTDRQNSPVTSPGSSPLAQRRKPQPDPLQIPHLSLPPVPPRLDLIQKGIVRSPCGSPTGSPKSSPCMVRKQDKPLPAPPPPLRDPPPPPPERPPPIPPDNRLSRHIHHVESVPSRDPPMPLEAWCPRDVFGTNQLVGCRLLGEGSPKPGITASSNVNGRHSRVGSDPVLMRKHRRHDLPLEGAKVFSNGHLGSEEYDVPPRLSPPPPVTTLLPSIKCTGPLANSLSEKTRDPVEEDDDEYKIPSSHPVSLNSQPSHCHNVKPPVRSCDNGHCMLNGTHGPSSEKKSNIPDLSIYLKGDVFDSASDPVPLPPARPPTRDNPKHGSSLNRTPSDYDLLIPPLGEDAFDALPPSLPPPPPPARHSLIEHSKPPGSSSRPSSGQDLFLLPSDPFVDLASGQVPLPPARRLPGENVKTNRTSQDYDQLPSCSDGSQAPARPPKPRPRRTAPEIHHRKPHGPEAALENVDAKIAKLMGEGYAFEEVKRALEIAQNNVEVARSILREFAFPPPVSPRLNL

EC50 ([1]; Homo sapiens)	IC50 [2]	SMILES	EC50 [1]
100 to 1000 nM	< 100 nM	COCCNCc1cc2c(C(F)(F)F)cn(-c3cc(-c4ccc(F)cc4-n4nccc4C(F)(F)F)cc(C4CC4)n3)c(=O)c2[nH]1 [Example 142, 6-[6-cyclopropyl-4-[4-fluoro-2-[5-(trifluoromethyl)pyrazol-1-yl]phenyl]pyridin-2-yl]-2-[(2-methoxyethylamino)methyl]-4-(trifluoromethyl)-1H-pyrrolo[2,3-c]pyridin-7-one]	
100 to 1000 nM	< 100 nM	Cc1c[nH]nc1-c1cc(F)ccc1-c1cccc(-n2cc(C3CC3)c3cc(CN4CCC[C@H](C)C4)[nH]c3c2=O)c1 [Example 21, 4-cyclopropyl-6-[3-[4-fluoro-2-(4-methyl-1H-pyrazol-3-yl)phenyl]phenyl]-2-[[(3S)-3-methylpiperidin-1-yl]methyl]-1H-pyrrolo[2,3-c]pyridin-7-one]	
< 100 nM	< 100 nM	CO[C@@H](C)CNCc1cc2ncn(-c3cc(-c4ccc(C#N)cc4-n4nncc4CF)cc(C4CC4)n3)c(=O)c2[nH]1 [Example 139, 4-[2-(2-{[(S)-2-methoxypropylamino]methyl}-7-oxo-1,6-dihydro-1,4,6-triaza-6-indenyl)-6-cyclopropyl-4-pyridyl]-3-[5-(fluoromethyl)-1H-1,2,3-triazol-1-yl]benzonitrile]	
< 100 nM	< 100 nM	COCCNCc1cc2ncn(-c3cc(-c4ccc(F)cc4-c4nncn4C)cc(C4CC4)n3)c(=O)c2[nH]1 [Example 28, 3-[6-cyclopropyl-4-[4-fluoro-2-(4-methyl-1,2,4-triazol-3-yl)phenyl]pyridin-2-yl]-6-[(2-methoxyethylamino)methyl]-5H-pyrrolo[3,2-d]pyrimidin-4-one]	
100 to 1000 nM	< 100 nM	Cn1ccnc1-c1cc(F)ccc1-c1cc(C2CC2)nc(-n2cc(C3CC3)c3cc(CN4C[C@H]5C[C@@H]4CO5)[nH]c3c2=O)c1 [Example 60, 2-({(1R,4R)-2-oxa-5-azabicyclo[2.2.1]hept-5-yl}methyl)-4-cyclopropyl-6-{6-cyclopropyl-4-[4-fluoro-2-(1-methyl-2-imidazolyl)phenyl]-2-pyridyl}-1,6-dihydro-1,6-diaza-7-indenone]	
100 to 1000 nM	< 100 nM	COCCN(Cc1cc2ncn(-c3cc(-c4ccc(F)cc4-c4nncn4C)cc(C4CC4)n3)c(=O)c2[nH]1)CC(F)(F)F [Example 35, 6-{6-cyclopropyl-4-[4-fluoro-2-(4-methyl-4H-1,2,4-triazol-3-yl)phenyl]-2-pyridyl}-2-{[(2-methoxyethyl)(2,2,2-trifluoroethyl)amino]methyl}-1,6-dihydro-1,4,6-triaza-7-indenone]	
< 100 nM	< 100 nM	[2H]C([2H])([2H])n1ccnc1-c1cc(C#N)ccc1-c1cc(C2CC2)nc(-n2cc(C3CC3)c3cc(CN4CCC[C@H](C)C4)[nH]c3c2=O)c1 [Example 14, 4-[2-(2-{[(S)-3-methyl-1-piperidyl]methyl}-4-cyclopropyl-7-oxo-1,6-dihydro-1,6-diaza-6-indenyl)-6-cyclopropyl-4-pyridyl]-3-{1-[(^2H3)methyl]-2-imidazolyl}benzonitrile]	
100 to 1000 nM	< 100 nM	CC(=O)N1CCC[C@H]1c1nc2c(C(F)(F)F)cn(-c3cc(-c4ccc(F)cc4-c4nncn4C)cc(C4CC4)n3)c(=O)c2[nH]1 [Example 45, 2-[(2S)-1-acetylpyrrolidin-2-yl]-5-[6-cyclopropyl-4-[4-fluoro-2-(4-methyl-1,2,4-triazol-3-yl)phenyl]pyridin-2-yl]-7-(trifluoromethyl)-3H-imidazo[4,5-c]pyridin-4-one]	
< 100 nM	< 100 nM	C[C@H]1CCCN(Cc2nc3c(C(F)(F)F)cn(-c4cc(-c5ccc(F)cc5-c5nncn5C)cc(C5CC5)n4)c(=O)c3[nH]2)C1 [Example 50, 5-[6-cyclopropyl-4-[4-fluoro-2-(4-methyl-1,2,4-triazol-3-yl)phenyl]pyridin-2-yl]-2-[[(3S)-3-methylpiperidin-1-yl]methyl]-7-(trifluoromethyl)-3H-imidazo[4,5-c]pyridin-4-one]	
100 to 1000 nM	< 100 nM	CC1(NCc2cc3ncn(-c4cc(-c5ccc(F)cc5-n5nccc5C(F)(F)F)cc(C5CC5)n4)c(=O)c3[nH]2)CCC1 [Example 105, 3-[6-cyclopropyl-4-[4-fluoro-2-[5-(trifluoromethyl)pyrazol-1-yl]phenyl]pyridin-2-yl]-6-[[(1-methylcyclobutyl)amino]methyl]-5H-pyrrolo[3,2-d]pyrimidin-4-one]	
< 100 nM	< 100 nM	Cn1ncnc1-c1cc(F)ccc1-c1cc(C2CC2)nc(-n2cnc3cc(CNC4(C)CCC4)[nH]c3c2=O)c1 [Example 120, 3-[6-cyclopropyl-4-[4-fluoro-2-(2-methyl-1,2,4-triazol-3-yl)phenyl]-pyridin-2-yl]-6-[[(1-methylcyclobutyl)amino]methyl]-5H-pyrrolo[3,2-d]pyrimidin-4-one]	
< 100 nM	< 100 nM	C[C@H]1CCCN(Cc2cc3c(C4CC4)cn(-c4cc(-c5ccc(F)cc5-c5nncn5C)cc(Cl)n4)c(=O)c3[nH]2)C1 [Example 6, 2-{1[(S)-3-Methyl-1-piperidyl]methyl}-6-{6-chloro-4-[4-fluoro-2-(4-methyl-4H-1,2,4-triazol-3-yl)phenyl]-2-pyridyl}-4-cyclopropyl-1,6-dihydro-1,6-diaza-7-indenone]	
< 100 nM	< 100 nM	COCCNCc1cc2c(C3CC3)cn(-c3cc(-c4ccc(F)cc4-c4nc(C#N)cn4C)cc(C4CC4)n3)c(=O)c2[nH]1 [Example 110, 2-[2-[2-cyclopropyl-6-[4-cyclopropyl-2-[(2-methoxyethylamino)methyl]-7-oxo-1H-pyrrolo[2,3-c]pyridin-6-yl]pyridin-4-yl]-5-fluorophenyl]-1-methylimidazole-4-carbonitrile]	
< 100 nM	< 100 nM	Cn1ccnc1-c1cc(F)ccc1-c1cc(C2CC2)nc(-n2cc(C3CC3)c3cc(CN[C@H]4CCOC4)[nH]c3c2=O)c1 [Example 59, 2-{[(S)-tetrahydro-3-furylamino]methyl}-4-cyclopropyl-6-{6-cyclopropyl-4-[4-fluoro-2-(1-methyl-2-imidazolyl)phenyl]-2-pyridyl}-1,6-dihydro-1,6-diaza-7-indenone]	
< 100 nM	< 100 nM	Cn1cnnc1-c1cc(F)ccc1-c1cc(C2CC2)nc(-n2cc(C(F)(F)F)c3nc(C4CC4)[nH]c3c2=O)c1 [Example 39, 2-cyclopropyl-5-[6-cyclopropyl-4-[4-fluoro-2-(4-methyl-1,2,4-triazol-3-yl)phenyl]pyridin-2-yl]-7-(trifluoromethyl)-3H-imidazo[4,5-c]pyridin-4-one]	
< 100 nM	< 100 nM	Cn1ccnc1-c1cc(F)ccc1-c1cc(C2CC2)nc(-n2cc(C(F)(F)F)c3c(C#N)c[nH]c3c2=O)c1 [Example 136, 6-{6-cyclopropyl-4-[4-fluoro-2-(1-methyl-2-imidazolyl)phenyl]-2-pyridyl}-7-oxo-4-(trifluoromethyl)-1,6-dihydro-1,6-diaza-3-indenecarbonitrile]	
100 to 1000 nM	< 100 nM	Cn1ccnc1-c1cc(F)ccc1-c1cc(C2CC2)nc(-n2cc(C3CC3)c3cc(CN4C[C@@H]5CC[C@H]4C5)[nH]c3c2=O)c1 [Example 56, 2-({(1S,4R)-2-azabicyclo[2.2.1]hept-2-yl}methyl)-4-cyclopropyl-6-{6-cyclopropyl-4-[4-fluoro-2-(1-methyl-2-imidazolyl)phenyl]-2-pyridyl}-1,6-dihydro-1,6-diaza-7-indenone]	
< 100 nM	< 100 nM	C[C@H]1CCCCN1Cc1cc2c(C#N)cn(-c3cc(-c4c(F)cc(F)cc4-c4nccn4C)cc(C4CC4)n3)c(=O)c2[nH]1 [Example 89, 2-{[(S)-2-methyl-1-piperidyl]methyl}-6-{6-cyclopropyl-4-[4,6-difluoro-2-(1-methyl-2-imidazolyl)phenyl]-2-pyridyl}-7-oxo-1,6-dihydro-1,6-diaza-4-indenecarbonitrile]	
100 to 1000 nM	< 100 nM	Cc1cnnn1-c1cc(F)ccc1-c1cc(C2CC2)nc(-n2cc(C(F)(F)F)c3nc(C4CC4)[nH]c3c2=O)c1 [Example 133, 2-cyclopropyl-5-{6-cyclopropyl-4-[4-fluoro-2-(5-methyl-1H-1,2,3-triazol-1-yl)phenyl]-2-pyridyl}-7-(trifluoromethyl)-3,5-dihydro-1,3,5-triaza-4-indenone]	

SMILES	EC50 ([1]; Homo sapiens)	IC50 [2]	EC50 [1]
COCNCC1=CC2C(N1)C(=O)N(c1cc(-c3ccc(F)cc3-n3nncc3C)cc(C3CC3)n1)CC2C(F)(F)F (centres unmarked) [Example 130, 6-[6-cyclopropyl-4-[4-fluoro-2-(5-methyltriazol-1-yl)phenyl]pyridin-2-yl]-2-[(methoxymethylamino)methyl]-4-(trifluoromethyl)-3a,4,5,7a-tetrahydro-1H-pyrrolo[2,3-c]pyridin-7-one]		< 100 nM	< 100 nM
C[C@H]1CCCN(Cc2cc3c(C#N)cn(-c4cc(-c5ccc(C#N)cc5-c5nccn5C)cc(C5CC5)n4)c(=O)c3[nH]2)C1 [Example 84, 2-{[(S)-3-methyl-1-piperidyl]methyl}-6-{4-[4-cyano-2-(1-methyl-2-imidazolyl)phenyl]-6-cyclopropyl-2-pyridyl}-7-oxo-1,6-dihydro-1,6-diaza-4-indenecarbonitrile]	< 100 nM	< 100 nM	
C[C@H]1CCCN(Cc2cc3c(C4CC4)cn(-c4cc(-c5ccc(F)cc5-c5cncn5C)cc(Cl)n4)c(=O)c3[nH]2)C1 [Example 23, 2-{[(S)-3-methyl-1-piperidyl]methyl}-6-{6-chloro-4-[4-fluoro-2-(1-methyl-5-imidazolyl)phenyl]-2-pyridyl}-4-cyclopropyl-1,6-dihydro-1,6-diaza-7-indenone]	> 5000 nM	1000 to 5000 nM	
